Test results from patent publication US10849904B2, “Methods for treatment of retinal disease by photoreceptor gene expression modulation” (University of Washington, priority 2015, dated 2020).
“Also recorded” adds a separate entry of the source.

Tests used:
[1] = system: retinas from Rho^P23H mice at P12; test: P12 Rho^P23H retinal explants, rod degeneration (ONL nuclei, Gnb1); assay type: cell-based, mouse; settings: 1 μM, vs DMSO
From the text: The effect of PR1 on Rho expression in adult rods might have potential as a way to slow the degeneration of these cells in dominant forms of retinitis pigmentosa, like Rho^P23H. In this disease, the affected individuals express a mutant form of rhodopsin that is likely inappropriately processed and ultimately leads to the death of the rods. […] The majority of rod cell death in the Rho^P23H transgenic line occurs between P14 and P21. Therefore, explants of retinas from Rho^P23H mice at P12 were made and treated the explants with 1 μM PR1 or DMSO (FIG. 9H). After 6 days in vitro, the retinas were processed for histology. The number of nuclei were counted in the ONL of each retina in the central region 100 μm from the optic nerve head. […] Gnb1 expression was also monitored as another measure of rod photoreceptor preservation because this is not directly affected by PR1 and thus serves as a surrogate for rod number. […]
RNA was isolated using TRIzol (Invitrogen) and cDNA was synthesized using the iScript cDNA synthesis kit (Bio-Rad) following an intervening DNase treatment with RQ1 RNase-free DNase (Promega). SSO Fast (Bio-Rad) was used for quantitative real-time PCR. For analysis, values were normalized to Gapdh and ΔΔCt between DMSO and compound-treated samples was expressed as percent of DMSO treated controls (100*2^ΔΔCt). […]

[2] = system: intact retinas from P12 wild type mice; test: P12 mouse retinal explant culture, qPCR for rod gene expression; assay type: cell-based; settings: P12 explants; for dose-response, Nrl, Nr2e3, and Rho expression: 2-3 days; for relative rhodopsin (Rho) expression: 1 μM, 2 days
From the text: To identify functional Nr2e3 antagonists, compounds were cheminformatically searched and structural analogs of a putative Nr2e3 interacting compound with unknown function were collected. See FIGS. 2 and 4 for the structures of the compounds. The collected compounds were then screened in a physiologically relevant primary culture assay using intact retinas from postnatal day 12-13 (P12-13) C57BL/6 mice for suppression of Rho expression (See FIG. 6A). After a 2 day culture period with media containing DMSO or compounds at 1 μM, the retinas were collected and assessed Rho expression by qPCR. Rho was chosen because it is a well-described target of Nr2e3 in rod photoreceptors. […] This analysis also provided an initial structure-activity relationship.
Nr2e3 loss-of-function mutations lead to a reduction in rod gene expression. To determine whether the same was true for PR1 (FIG. 6D), explant cultures of P12 retina as above were treated and assayed for other rod photoreceptor genes. After 2 days in culture, PR1 decreased the expression of the rod specific genes Nrl, Nr2e3, Rho, Gnat1, and Pde6b compared to DMSO treatment by qPCR analysis (FIG. 6C). […] To determine the dose-response relationship between PR1 concentration and expression of rod genes, retinas from P12 mice were explanted in media containing DMSO or 0.1, 1, 5, or 10 μM PR1 for 2-3 days and assayed Nrl, Nr2e3, and Rho expression by qPCR. […] PR1 was tested to determine whether it could cause a reduction in Rho expression in human rod photoreceptors as well. Pairs of 113 day post-conception retinas were explanted in media with DMSO or 10 μM PR1 for 7 or 23 days. After 7 and 23 days in culture, PR1 decreased the expression of Rho compared to DMSO treatment (FIG. 6F), similar to the effect observed in mouse retinal explants.
Intact retinas without RPE from mice of various strains and ages as indicated were explanted on 0.4 μm pore tissue culture inserts (Millipore) as previously described (Ueki, Y., et al., P53 is required for the developmental restriction in Muller glial proliferation in mouse retina. Glia, 2012. 60(10): p. 1579-89; Ueki, Y., et al., A transient wave of BMP signaling in the retina is necessary for Muller glial differentiation. Development, 2015. 142(3): p. 533-43. Full media (DMEM/F12 (1:1) containing 1% dialyzed FBS, 1% Pen Strep, 0.3% D+ glucose, 2% B27, and 1% N2) changes were performed every other day and small molecules were used at 0.1 μM to 10 μM. Where indicated, EdU (Invitrogen) was included in the media at 5 μg/mL and visualized by staining with the Click-iT EdU Alexa Fluor kit (Thermo Fisher Scientific). For human retinal explant cultures, tissue from 113 day post-conception fetuses was obtained from the University of Washington Birth Defects Laboratory and explanted on 0.4 μm pore tissue culture inserts (Millipore) in media (Neurobasal A with 1% FBS, 1% Pen Strep, 1% N2, 1% B27) containing 10 μM Photoregulin1 or an equal volume of DMSO.
RNA was isolated using TRIzol (Invitrogen) and cDNA was synthesized using the iScript cDNA synthesis kit (Bio-Rad) following an intervening DNase treatment with RQ1 RNase-free DNase (Promega). SSO Fast (Bio-Rad) was used for quantitative real-time PCR. For analysis, values were normalized to Gapdh and ΔΔCt between DMSO and compound-treated samples was expressed as percent of DMSO treated controls (100*2^ΔΔCt). Two-way Student's t-tests were performed on ΔCt values.

Cc1cc(C)cc(NC(=O)CCc2nc3sc4c(c3c(=O)[nH]2)CCCC4)c1 [PR1, N-(3,5-dimethylphenyl)-3-(4-oxo-5,6,7,8-tetrahydro-3H-[1]benzothiolo[2,3-d]pyrimidin-2-yl)propanamide]
number of rod photoreceptors (nuclei) in the ONL, 100 μm from the optic nerve head ([1]; 6 days in vitro): nearly twice
Gnb1 expression (surrogate for rod number) [1]: significantly more Gnb1 expression
dose-response, Nrl, Nr2e3, and Rho expression ([2]; 0.1 uM): Some effect
relative rhodopsin (Rho) expression ([2]; vs DMSO): substantially decrease Rho expression; also recorded: decreased
relative rhodopsin (Rho) expression ([2]; vs DMSO, listed as CA88): reducing rhodopsin expression
Crx expression ([2]; 2 days in culture, vs DMSO): did not significantly decrease
Gnat1 expression ([2]; 2 days in culture, vs DMSO): decreased
Gnb1 expression ([2]; 2 days in culture, vs DMSO): did not significantly decrease
Nr2e3 expression ([2]; 2 days in culture, vs DMSO): decreased
Nrl expression ([2]; 2 days in culture, vs DMSO): decreased
Pde6b expression ([2]; 2 days in culture, vs DMSO): decreased
dose-response, Nrl, Nr2e3, and Rho expression ([2]; higher concentrations (1, 5, or 10 μM)): statistically significant reductions
